Columns and labels:
[1] = test system: adult human subjects with type 2 diabetes that were at high risk for cardiovascular events; assay: Cardiovascular outcomes trial (DEVOTE): insulin degludec vs insulin glargine, time to first MACE; format: in vivo; conditions: for Hazard Ratio (95% CI), time to first MACE: insulin degludec vs insulin glargine
From the text: This trial concerned incidence of cardiovascular events in adult human subjects with type 2 diabetes that were at high risk for cardiovascular events, including such subjects with existing cardiovascular disease. The primary objective of this trial was to confirm the cardiovascular safety of insulin degludec (Tresiba®) compared to that of insulin glargine (Lantus®). The secondary objective was to assess efficacy of insulin degludec on markers of glycaemic control and to assess safety on other parameters in subjects with type 2 diabetes that were at high risk for cardiovascular events.
An 18-month recruitment period was planned. […] Subjects were randomised 1:1 in a double-blinded manner to receive blinded insulin degludec or blinded insulin glargine, each added to standard of care. Subjects continued their current antidiabetic therapy except for the basal insulin component (if any), which was replaced by the investigational product. Treatment with bolus insulin was allowed.
Subjects not currently on insulin were to initiate basal insulin at a dose of 10 units OD given between dinner and bedtime. Subjects receiving basal insulin OD were to transfer unit-to-unit from their previous basal insulin dose. Subjects receiving twice-daily (or more) basal insulin transferred to an OD regimen and the pre-trial total basal insulin dose was reduced by 20-30% in accordance with the label for insulin glargine. For subjects receiving premixed/biphasic insulin OD, the basal component was calculated and transferred unit-to-unit to investigational product OD. The bolus insulin component was calculated and transferred unit-to-unit to bolus insulin and given at the most appropriate meal at the investigator's discretion. For subjects receiving premixed/biphasic insulin twice daily (or more), the total basal component was calculated, reduced by 20-30% and transferred to investigational product OD; the bolus component was to be calculated and transferred to insulin aspart and dosed with the most appropriate meals at the investigator's discretion. Subjects treated with bolus insulin as part of their current insulin regimen could be transferred to insulin aspart unit-to-unit from their previous bolus insulin dose, at the investigator's discretion.
Subjects adjusted their basal insulin dose weekly, aiming for a pre-breakfast (fasting) SMPG value of 71-90 mg/dL (4.0-5.0 mmol/L) by using the algorithm in Table 6. The basal dose was adjusted based on the lowest of three pre-breakfast SMPG values, preferably measured two days prior to dose adjustment and on the day of the dose adjustment. No maximum dose was specified. The investigators were to guide the subjects in adjusting their insulin at clinic visits and phone contacts. Investigators and subjects were recommended to follow the basal insulin titration algorithm. Importantly, however, the decision of adjustment of insulin doses was to be based on all available information, such as symptoms of hypoglycaemia and hyperglycaemia, previous responses to dose adjustments and SMPG values other than those required as per protocol.
Intensification with bolus insulin and other antidiabetic treatments was allowed during the course of the trial. The starting dose of bolus insulin was 4 units per relevant meal. […] Titration of bolus insulin could also be done based on carbohydrate counting. This was to be done at the investigator's discretion.
Subjects received insulin degludec or insulin glargine by subcutaneous administrations once daily in addition to the subject's standard treatment. Basal insulin was injected in the thigh, the upper arm (deltoid area) or the abdominal wall. The formulations were administered in the form of an aqueous solution comprising insulin degludec or insulin glargine, using identical 100 units/mL, 10-mL vials and 1-mL syringes.
The results of this trial may be presented herein as a number or fraction of subjects experiencing an event.

[2] = test system: human subjects with T2DM inadequately controlled on insulin glargine in combination with metformin; assay: Example 3: 26-week open-label trial, IDegLira vs IGlar, both in combination with metformin; format: in vivo; conditions: 26 weeks of treatment
Description: A 26-week multinational, multi-centre, open-label, two-arm parallel, randomised, treat-to-target trial in 557 human subjects with T2DM inadequately controlled on insulin glargine (IGlar, Lantus®) at a daily dose between 20-50 units (both inclusive) in combination with metformin was carried out. The primary objective was to confirm the efficacy of IDegLira in controlling glycaemia in human subjects with T2DM on previous treatment with IGlar. The secondary objective was to compare safety of IDegLira to IGlar after 26 weeks of treatment and to confirm superiority of IDegLira versus IGlar after 26 weeks of treatment on one or more of the following: change from baseline in HbA1c, confirmed hypoglycaemia, change from baseline in body weight.
IGlar was given at a start dose equal to the pre-trial daily dose of IGlar (dose-to-dose switch) and was titrated according to a predefined titration algorithm with no maximum dose.
The trial included a screening visit to assess subjects' eligibility and weekly visits/phone contacts during the 26-week treatment period.
Subjects randomised to treatment with IDegLira discontinued the pre-trial IGlar treatment prior to initiating IDegLira treatment with a start dose of 16 dose steps, equivalent to 16 units insulin degludec and 0.6 mg liraglutide. […] Subjects randomised for treatment with IGlar […] on the pre-trial, stable IGlar treatment prior to initiating IGlar treatment with a start dose of IGlar equal to the pretrial daily dose (dose-to-dose switch). No predefined maximum dose was specified for IGlar treatment.
Subjects received IDegLira or IGlar by subcutaneous administration once daily in addition to metformin. […] IGlar was to be injected according to the approved label and using the pre-trial dosing time and injection site throughout the trial.

[3] = test system: adult human subjects with type 2 diabetes that were at high risk for cardiovascular events; assay: CV risk score model and subgroup analysis of MACE based on the DEVOTE trial; format: in vivo; design: key to Estimate (risk of MACE with IDeg compared to IGlar): hazard ratio of MACE, IDeg vs IGlar; conditions: for Estimated hazard ratio (HR) for MACE by CV risk score: IDeg/IGlar
From the text: Based on the DEVOTE trial, a cardiovascular (CV) risk score has been developed for individuals with established cardiovascular risk. This risk score was developed using available medical history, baseline information and cardiovascular events occurring during the trial. […] The variables are listed in descending order according to their impact on the overall risk of major adverse cardiovascular events (MACE), here consisting of cardiovascular death, non-fatal myocardial infarction, or non-fatal stroke. The combination of these variables yields an algorithm that can be used to determine the risk of future MACEs and to determine the benefit of being treated with IDeg compared to IGlar.
The CV risk score and estimated MACE hazard ratio for CV risk scores by quartiles based on number of events are presented in FIG. 1. […] This benefit is seen regardless of which of the individual predictors contribute to the high score.
For example, subjects with a BMI ≥30 kg/m^2 and diastolic blood pressure ≥80 mmHg, and subjects with a diastolic blood pressure ≥80 mmHg who were treated with statins would have a benefit with IDeg compared to IGlar in terms of risk of MACE (Table 11).

[4] = test system: human subjects with type 2 diabetes inadequately controlled with basal insulin and metformin; conditions: in vivo
Description: (§1) A 26-week randomised, parallel two-arm, double-blind, multi-centre, multinational, treat-to-target trial in 413 human subjects with type 2 diabetes inadequately controlled with basal insulin and metformin with or without SU or glinides was carried out comparing the efficacy and safety of insulin degludec+liraglutide (Xultophy®, IDegLira) once daily with insulin degludec (Tresiba®, IDeg) once daily both added on to metformin. […] The secondary objective was to compare the overall efficacy and safety parameters of IDegLira and IDeg after 26 weeks of treatment. All trial endpoints were collected and assessed throughout the entire duration of the trial.
(§2) Eligible subjects were randomised 1:1 to either once daily IDegLira or once daily IDeg, both in combination with metformin. […] For each subject, the duration of the trial was to be approximately 29 weeks: up to 2 weeks between screening and first treatment, 26 weeks of treatment and at least 1 week of wash-out at the end of the trial.
(§3) The IDegLira dosing unit is defined as a dose step. One (1) IDegLira dose step consists of 1 unit insulin degludec and 0.036 mg liraglutide. Treatment with IDegLira was initiated at 16 dose steps containing 16 units insulin degludec and 0.6 mg liraglutide. Adjustment of the IDegLira dose was performed twice weekly based on the mean of 3 preceding daily fasting SMPG values on 3 consecutive days. Adjustments occurred in 2 dose steps aiming at a fasting glycaemic target of 4.0-5.0 mmol/L (72-90 mg/dL). The maximum allowed dose was 50 dose steps (50 units IDeg/1.8 mg liraglutide). IDeg treatment was initiated with 16 units, and titrated twice weekly to the fasting glycaemic target of 4.0-5.0 mmol/L (72-90 mg/dL) based on the mean fasting SMPG from 3 proceeding measurements as described for IDegLira. The maximum allowed dose was 50 units.
(§4) Subjects received IDegLira or IDeg by subcutaneous administration in addition to metformin. IDegLira or IDeg was injected subcutaneously in the thigh, upper arm (deltoid region) or abdomen once daily preferably at the same time every day. The injection area chosen were to remain unchanged throughout the trial, but rotation within the area was recommended.

[5] = test system: human subjects with type 2 diabetes inadequately controlled with basal insulin and metformin; assay: Example 2: 26-week double-blind trial, IDegLira vs IDeg, both added on to metformin; conditions: 26 weeks of treatment
Description: as §1, §2, §3, §4

IGlar: Insulin glargine (Lantus®), commercially available basal insulin, active comparator
n, number of subjects with a first MACE ([1]; all subjects): 356
proportion of subjects with a first MACE ([1]; all subjects): 9.3%
n, number of subjects with a first MACE ([1]; subgroup Africa): 18
proportion of subjects with a first MACE ([1]; subgroup Africa): 14.4%
n, number of subjects with a first MACE ([1]; subgroup Asia): 31
proportion of subjects with a first MACE ([1]; subgroup Asia): 9.4%
n, number of subjects with a first MACE ([1]; subgroup Female): 131
proportion of subjects with a first MACE ([1]; subgroup Female): 9.1%
n, number of subjects with a first MACE ([1]; subgroup Male): 225
proportion of subjects with a first MACE ([1]; subgroup Male): 9.5%
Mean body weight increase [2]: 1.8 kg
proportion of subjects experiencing confirmed hypoglycaemic episodes during the trial [2]: 49.1%
ΔDiastolic blood pressure (change from baseline) [2]: −1.4 mmHG
ΔHeart rate (change from baseline) [2]: −0.2 bpm
ΔSystolic blood pressure (change from baseline) [2]: −0.2 mmHG

N^εB29—(N^α—(HOOC(CH2)14CO)-γ-Glu) desB30 human insulin [IDeg]
n, number of subjects with a first MACE ([1]; all subjects): 325
proportion of subjects with a first MACE ([1]; all subjects): 8.5%
Hazard Ratio (95% CI), time to first MACE ([1]; all subjects, MACE = CV death, non-fatal MI, non-fatal stroke, Cox model): 0.91 (0.78;1.06)
n, number of subjects with a first MACE ([1]; subgroup Africa): 6
proportion of subjects with a first MACE ([1]; subgroup Africa): 4.6%
n, number of subjects with a first MACE ([1]; subgroup Asia): 13
proportion of subjects with a first MACE ([1]; subgroup Asia): 4.1%
n, number of subjects with a first MACE ([1]; subgroup Female): 99
proportion of subjects with a first MACE ([1]; subgroup Female): 7.0%
n, number of subjects with a first MACE ([1]; subgroup Male): 226
proportion of subjects with a first MACE ([1]; subgroup Male): 9.4%
Hazard Ratio (95% CI), time to first MACE ([1]; subgroup Region: Africa): 0.30 (0.12; 0.77)
Hazard Ratio (95% CI), time to first MACE ([1]; subgroup Region: Asia): 0.42 (0.22; 0.81)
Hazard Ratio (95% CI), time to first MACE ([1]; subgroup Sex: Female): 0.76 (0.59; 0.99)
Hazard Ratio (95% CI), time to first MACE ([1]; subgroup Sex: Male): 0.99 (0.83; 1.20)
Estimated hazard ratio (HR) for MACE by CV risk score ([3]; CV risk score quartile High): 1.04
Estimated hazard ratio (HR) for MACE by CV risk score ([3]; CV risk score quartile Low): 1.02
Estimated hazard ratio (HR) for MACE by CV risk score ([3]; CV risk score quartile Moderate): 0.89
Estimated hazard ratio (HR) for MACE by CV risk score ([3]; CV risk score quartile Very High): 0.67
hazard ratio IDeg/IGlar, risk of MACE ([3]; patients who have a high CV risk score): < 1
Estimate (risk of MACE with IDeg compared to IGlar) ([3]; subgroup Age 65-75 years AND systolic blood pressure <140 mmHg): 0.70
Estimate (risk of MACE with IDeg compared to IGlar) ([3]; subgroup Age <65 years AND diastolic blood pressure ≥80 mmHg): 0.64
Estimate (risk of MACE with IDeg compared to IGlar) ([3]; subgroup Age <65 years AND treated with statins): 0.75
Estimate (risk of MACE with IDeg compared to IGlar) ([3]; subgroup BMI ≥30 kg/m^2 AND diastolic blood pressure ≥80 mmHg): 0.68
Estimate (risk of MACE with IDeg compared to IGlar) ([3]; subgroup Diastolic blood pressure <90 mmHg AND HDL ≥1.0 mmol/L): 0.80
Estimate (risk of MACE with IDeg compared to IGlar) ([3]; subgroup Diastolic blood pressure ≥80 mmHg AND treated with statins): 0.73
Estimate (risk of MACE with IDeg compared to IGlar) ([3]; subgroup Diastolic blood pressure ≥80 mmHg AND triglycerides >1.7 mmol/L): 0.69
Estimate (risk of MACE with IDeg compared to IGlar) ([3]; subgroup Established CV risk AND HDL ≥1.0 mmol/L): 0.78
Estimate (risk of MACE with IDeg compared to IGlar) ([3]; subgroup Established CV risk AND diastolic blood pressure ≥80 mmHg): 0.76
Estimate (risk of MACE with IDeg compared to IGlar) ([3]; subgroup Established CV risk AND pulse ≥70 bpm): 0.80
Estimate (risk of MACE with IDeg compared to IGlar) ([3]; subgroup Height <170 cm AND treated with statins): 0.75
Estimate (risk of MACE with IDeg compared to IGlar) ([3]; subgroup Non-White AND diastolic blood pressure <90 mmHg): 0.64
Estimate (risk of MACE with IDeg compared to IGlar) ([3]; subgroup Not Hispanic or Latino AND Non-White): 0.64
Estimate (risk of MACE with IDeg compared to IGlar) ([3]; subgroup Not Hispanic or Latino AND triglycerides >1.7 mmol/L): 0.79
Estimate (risk of MACE with IDeg compared to IGlar) ([3]; subgroup Previous smoker AND age <65 years): 0.73
Estimate (risk of MACE with IDeg compared to IGlar) ([3]; subgroup Previous smoker AND cholesterol ≥3 mmol/L): 0.79
Estimate (risk of MACE with IDeg compared to IGlar) ([3]; subgroup Previous smoker AND diastolic blood pressure ≥80 mmHg): 0.66
Estimate (risk of MACE with IDeg compared to IGlar) ([3]; subgroup Previous smoker AND treated with statins): 0.79
Estimate (risk of MACE with IDeg compared to IGlar) ([3]; subgroup Previous smoker AND triglycerides >1.7 mmol/L): 0.73
Estimate (risk of MACE with IDeg compared to IGlar) ([3]; subgroup Pulse ≥70 bpm AND diastolic blood pressure ≥80 mmHg): 0.74
Estimate (risk of MACE with IDeg compared to IGlar) ([3]; subgroup Pulse ≥70 bpm AND triglycerides >1.7 mmol/L): 0.76
Estimate (risk of MACE with IDeg compared to IGlar) ([3]; subgroup Pulse ≥70 mmHg AND treated with statins): 0.72
Estimate (risk of MACE with IDeg compared to IGlar) ([3]; subgroup Systolic blood pressure <140 mmHg AND HDL ≥1.0 mmol/L): 0.73
Estimate (risk of MACE with IDeg compared to IGlar) ([3]; subgroup Triglycerides >1.7 mmol/L AND HDL ≥1.0 mmol/L): 0.69
Estimate (risk of MACE with IDeg compared to IGlar) ([3]; subgroup Triglycerides >1.7 mmol/L AND treated with statins): 0.78
Adverse event and tolerability profiles [4]: consistent with previous findings
ΔHeart rate (change from baseline) [4]: −0.6 bpm
ΔDiastolic blood pressure (change from baseline) [5]: −0.7 mmHG
ΔSystolic blood pressure (change from baseline) [5]: −1.7 mmHG

Source: patent US12233114B2, “Method for treating diabetes” (Novo Nordisk A/S, priority 2016, dated 2025)
